In PubChem BioAssay (NCI):
“And” between values parts separate entries of the source, which are not always exact repeats. Equal entries are not always repeated.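 Assay format: 96-well plates, 48-hour exposure. GI50 is the concentration that inhibits growth by half. TGI is the concentration that stops growth completely.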 The source made the active and inactive calls. Cut-off read from the data, not from the text of the source: active = GI50 below about 0.43 µM; inactive = the rest.

Each compound was assayed on MDA-MB-468 breast (assay: NCI anticancer screen, dose series, 48 h).

Row | SMILES | GI50 | TGI | outcome
1 | Cc1nc(N2CCC3(CC2)CO[C@@H](C)[C@H]3N)c(CO)nc1Sc1ccnc(N)c1Cl | 0.228 µM | 4.86 µM | –
2 | COc1cc(Nc2nc3ccccc3cc2C(=O)Nc2ccc(F)c(F)c2)cc(OC)c1OC | 2.01 µM | 6.58 µM | –
3 | CCN(CC)CCCC(C)N=C(C1=C(C(=NC(C)CCCN(CC)CC)c2cccc(OC)c2)C(=O)NC1=O)c1cccc(OC)c1 (stereo not given) | 0.869 µM | 2.07 µM | –
4 | Cc1ccc(C)c(C2NC(=O)c3ccccc3N2)c1 (stereo not given) | 4.38 µM | > 100 µM | –
5 | CN1C(=O)N[C@H]2[C@@H]3NC(=O)c4ccc(Br)n4[C@@H]3C[C@]21O | 0.0253 µM | 0.173 µM | –
6 | Cc1cc(N2CCSCC2)nc(NC2CCCC(Nc3ccnc4cc(Cl)ccc34)C2)n1 (stereo not given) | 1.58 µM | 3.35 µM | –
7 | CC(C)(C)[Si](C)(C)OC1[C@@H](O[Si](C)(C)C(C)(C)C)[C@@H](CNC(=O)NC(=O)CCl)O[C@H]1n1cnc2c(NC(=O)Nc3ccccc3)ncnc21 (stereo not given in full) | 0.839 µM | 1.91 µM | –
8 | N#Cc1c(NC(=O)c2ccccc2C(F)(F)F)sc2c1CCC(=O)C2 | 1.69 µM | 4.68 µM | –
9 | COc1cc(-c2nc(-c3nc4ccccc4[nH]3)cc3c2[nH]c2ccccc23)cc(OC)c1OC | 3.32 µM | > 100 µM | –
10 | C=C1CCC2C(C)(COC(=O)CC)C(OC(=O)CC)CCC2(C)C1C/C=C1/C(=O)OCC1OC(=O)CC (stereo not given) | 1.74 µM | 3.4 µM | –
11 | NC(=O)c1cccc(Nc2nccc(Nc3cccc4[nH]ncc34)n2)c1 | 2.12 µM | 9.35 µM | –
12 | O=C(Nc1ccc(-n2ccc3c(NC(=O)c4ccccc4)ncnc32)cc1)Nc1cccc(Cl)c1Cl | 1.18 µM | 3.42 µM | –
13 | CCN(CC)CCCNC(=O)c1c2c(n3ccccc13)C(=O)c1ncccc1C2=O | 0.283 µM | 1.08 µM | –
14 | COc1ccccc1CNCCCN1C(=O)c2ccc3c4c(ccc(c24)C1=O)C(=O)N(CCCCNCCCN)C3=O | 0.267 µM | 0.835 µM | –
15 | O=C(/C=C/c1ccccc1)n1c(-c2ccc(Cl)cc2)nc2ccccc21 | 1.52 µM | 4.32 µM | –
16 | Cc1cc(CC(C)CC(C)(C)C)n(O)c(=O)c1 (stereo not given) (tested in a mixture with another compound) | 0.273 µM | 1.06 µM | –
17 | O=C1/C(=C\c2ccccn2)c2ccccc2N1c1c(Cl)cccc1Cl | 1.26 µM | 3.1 µM | –
18 | COc1ccc(/C=N\Nc2ccc([N+](=O)[O-])cn2)cc1OC | > 100 µM | > 100 µM | –
19 | Cc1sc2c(c1C)C(c1ccc(Cl)cc1)=N[C@@H](CC(=O)OC(C)(C)C)c1nnc(C)n1-2 | 0.0708 µM and 0.112 µM | 1.52 µM and 10.8 µM | –

Row | SMILES | GI50 | TGI | outcome
20 | Cn1c2ccc(Br)cc2c2c3c(c4c5ccccc5[nH]c4c21)C(=O)N(O)C3=O | 0.214 µM | 0.638 µM | –
21 | COc1ccc2[nH]cc(-c3nc(N)nnc3-c3cn(C)c4ccc(Br)cc34)c2c1 | 0.698 µM | 16 µM | –
22 | COc1ccc2c(c1)CC[C@H](O)/C2=C/c1cc(OC)c(OC)c(OC)c1 | 0.2 µM | 15.8 µM | –
23 | CNC(=O)Cc1nc(-c2cccc(NS(=O)(=O)c3c(F)cccc3F)c2F)c(-c2ccnc(Nc3ccccc3)n2)s1 | > 23.4 µM | > 50 µM | –
24 | COc1cc(CNc2ccccc2C(=O)N2CCN(C(=O)c3cc(-c4cc(OC)c(OC)c(OC)c4)n4nc(-c5ccccc5)cc4n3)CC2)cc(OC)c1OC | 2.1 µM | 8.45 µM | –
25 | CCOC(=O)CC1C(COC(=O)NC)OC(n2cnc3c(NC(=O)Nc4ccccc4)ncnc32)C1O[Si](C)(C)C(C)(C)C (stereo not given) | 19.7 µM | 94.1 µM | –
26 | O=C(OCc1ncc(-c2ccc(C(F)(F)F)cc2)c(NC2CCCCCC2)n1)c1c(F)c(F)c(F)c(F)c1F | 2 µM | 5.01 µM | –
27 | COc1ccc(C(=O)c2cc3c(N)c(C(=O)Nc4ccc(C)cc4)sc3nc2C)cc1 | 1.87 µM | 7.08 µM | –
28 | O=C(N/N=C/c1ccc([N+](=O)[O-])s1)c1[nH]c2ccc(Br)cc2c1-c1ccccc1 | 0.731 µM | 22.2 µM | –
29 | CCCC(CCC)C(=O)OCC1(CO)C/C(=C\c2ccc(F)cc2)C(=O)O1 (stereo not given) | 11.3 µM | 24.2 µM | –
30 | COC(=O)c1cc(O)c2c(c1C(=O)OC)C[C@H]1[C@@H]3CC=C4C[C@@H](O)CC[C@]4(C)[C@H]3CC[C@]21C | 2.87 µM | 18.1 µM | –
31 | COc1cccc(C2c3cc4c(cc3OC(N3CCCC3)C2C)OCO4)c1O (stereo not given) | 3.33 µM | 15.8 µM | –
32 | OCC(O)c1nc2ccc3[nH]ncc3c2c2c1CCCC2 (stereo not given) | 1.04 µM | 2.11 µM | –
33 | Nc1nc(N)c2cc(NCc3ccc(Cl)c(Cl)c3)ccc2n1 | 1.06 µM | 2.23 µM | –
34 | Cc1ccc(N(CC(=O)Nc2ccc(S(=O)(=O)N3CCC(N4CCCC4)CC3)cc2)S(=O)(=O)c2ccc(Cl)cc2)cc1 | 1.65 µM | 3.48 µM | –
35 | CCC(CNc1cc(OC)cc2cccnc12)NC1CCCCC1 (stereo not given) | 7.66 µM | 35.5 µM | –
36 | COc1cccc(NC(=O)c2sc3nc4c(cc3c2N)C(=O)CCC4)c1 | 0.0467 µM | > 100 µM | –
37 | CO[C@H](C(=O)[C@@H](O)[C@@H](C)O)[C@@H]1Cc2cc3cc(OC4CC(OC5CC(O)C(O)C(C)O5)C(O)C(C)O4)c(C)c(O)c3c(O)c2C(=O)[C@H]1OC1CC(OC2CC(OC3CC(C)(O)C(O)C(C)O3)C(O)C(C)O2)C(O)C(C)O1 (stereo not given in full) | – | – | inactive
38 | CC(C)(C)CC(C)(C)NCc1cc(C(C)(C)C)cc(CNC(C)(C)CC(C)(C)C)c1O | 1.26 µM | 2.85 µM | –
